From patent US20250313546A1, “NUCLEIC ACID BINDERS” (UNIVERSITY OF STRATHCLYDE, priority 2022, published 2025)
Converted amounts (≈) assume the structure as drawn.

Assays:
Influenza (H1N1) = test: Accelerated Viral Neuraminidase Inhibition Assay (AVINA), A549 cells; type: cell-based; conditions: Influenza A virus, 72 h
[1] = test system: Rhizopus arrhizus (NEQAS12.35321); conditions: read-out: MIC99 Rhizopus arrhizus
[2] = test system: Enterococcus faecalis (ATCC 51299); test: Antibacterial MIC, broth microdilution (CLSI); type: cell-based; conditions: for MIC80: Enterococcus faecalis, ATCC51299, read-out: MIC80 E. faecalis; for E. faecalis Selectivity Indices, Group / E. faecalis Selectivity Index (SI): SI, IC50 (μM)/MIC80 (μM), HEK293 cytotoxicity; for E. faecalis Selectivity Indices, Group: Alkyl Amidines and NH Pyrroles; for E. faecalis Selectivity Index (SI): numeric value
[3] = test system: Human rhinovirus (HRV-14); test: Viral ToxGlo assay, Hela Ohio cells; type: cell-based; conditions: M-HeLa, 72 h
[4] = test system: A. fumigatus A1160 (MFIG001); conditions: Aspergillus fumigatus, read-out: MIC99 A. fumigatus A1160
T. equiperdum = test: Resazurin-based (Alamar blue) drug sensitivity assay; conditions: Trypanosoma equiperdum, read-out: IC50 T. equiperdum
Protocol: A detailed description of the procedure for evaluating activity against trypanosomes, using an Alamar Blue (resazurin) assay, is described below.
The bloodstream form (BSF) T. b. brucei s427 (see De Koning, H. P. et al., Mol. Biochem. Parasitol. 2000, 106, 181-185), T. evansi AntTat 3/3 (see Dean, S. et al., Proc. Natl. Acad. Sci. USA, 2013, 110, 14741-14746), and T. equiperdum (see Stewart, M. L. et al., Eukaryot. Cell, 2010, 9, 336-343) were cultured in HMI-9 medium (Life Technologies, Paisley, United Kingdom) supplemented with 10% heat inactivated Foetal Bovine Serum (FBS (PAA Laboratories Linz, Austria)), 14 μL/L β-mercaptoethanol (BDH, Dorset, UK), and 3.0 g/L NaHCO3 (Sigma-Aldrich) and adjusted to pH 7.4. These cell lines were maintained at 37° C. in a humidified, 5% CO2 environment.
A resazurin-based (Alamar blue) drug sensitivity assay was used to assess and compare the activity of standard trypanocides in the different cell lines investigated (see Gould, M. K. et al., Anal. Biochem., 2008, 382, 87-93). Briefly, 23 doubling dilutions of the test compound of the invention, starting at 100 μM, and a compound-free control were prepared in 100 μL medium in a 96-well white plate (Greiner Bio-one, Frickenhausen, Germany). The cells were adjusted to 2×10^4 cells/mL for T. b. brucei and T. equiperdum; 4×10^4 cells/mL for T. evansi; and 5×10^5 cells/mL for T. congolense in the appropriate medium. 100 μL of the adjusted cells was then added to the wells containing drug dilutions and incubated for 48 h under respective culture condition. Thereafter, 20 μL of 125 mg/mL resazurin sodium dye was added, and the plate was incubated for a further 24 h.

[5] = test system: Candida glabrata (ACPF3309); conditions: for MIC99: Nakaseomyces glabratus, read-out: MIC99 Candida glabrata; for C. glabrata Selectivity Indices, Group: Alkyl Amidines and NH Pyrroles
Protocol: The Minimum Inhibitory Concentration (MIC, at 99% inhibition) of the compounds was determined using the broth microdilution method as recommended by EUCAST (EUCAST Definitive Document E.DEF 9.3.2, Method for the determination of broth dilution minimum inhibitory concentrations of antifungal agents for conidia forming moulds and EUCAST Definitive Document E.DEF 7.3.2 Method for the determination of broth dilution minimum inhibitory concentrations of antifungal agents for yeasts).

[6] = test system: PolyAU double stranded RNA; test: Fluorescence intercalator displacement (FID) assay, SYBR-safe probe; conditions: 20 μM compound, 30° C., lower % = stronger binding
Outline: (§1)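 Compound at 20 μM mixed with 3.76 ng/mL polyAU dsRNA or salmon genomic dsDNA and 12500-fold diluted SybrSafe in 1 mM phosphate buffer pH 7.4, then heated to 30 °C and fluorescence read. Reduction is expressed as normalised %, with nucleic acid plus probe as maximum and probe alone as minimum.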

[7] = test system: Genomic double stranded DNA (salmon); test: as above; conditions: 20 μM compound, 30° C., lower % = stronger binding
Outline: as §1

Candida auris (H.17.157) = conditions: for MIC99: Candidozyma auris, read-out: MIC99 Candida auris; for C. auris Selectivity Indices, Group: SI, IC50 (μM)/MIC99 (μg/mL), HEK293 cytotoxicity, Alkyl Amidines and NH Pyrroles
T. evansi AntTat 3/3 = test: Resazurin-based (Alamar blue) drug sensitivity assay; conditions: read-out: IC50 T. evansi
[8] = test system: Escherichia coli (ATCC 25922); test: Antibacterial MIC, broth microdilution (CLSI); type: cell-based; conditions: Escherichia coli, ATCC25922; read-out: MIC80 E. coli
[9] = test system: human respiratory syncytial virus (RSV A2); test: Viral ToxGlo assay, Hep-2 cells; type: cell-based; conditions: 72 h
[10] = test system: Staphylococcus aureus (ATCC 43300); test: Antibacterial MIC, broth microdilution (CLSI); type: cell-based; conditions: for S. aureus Selectivity Indices, Group: Alkyl Amidines and NH Pyrroles; for MIC80: Staphylococcus aureus, ATCC43300, read-out: MIC80 S. aureus
C. neoformans (F10025) = conditions: Cryptococcus neoformans, read-out: MIC99 C. neoformans
T. vaginalis = test: Trichomonas resorufin assay; type: cell-based; conditions: for IC50: Trichomonas vaginalis, read-out: IC50 T. vaginalis; for T. vaginalis Selectivity Indices, Group / T. vaginalis Selectivity Index (SI): SI, IC50 (μM)/IC50 (μM), HEK293 cytotoxicity; for T. vaginalis Selectivity Indices, Group: Alkyl Amidines and NH Pyrroles; for T. vaginalis Selectivity Index (SI): numeric value
[11] = test system: SARS-CoV-2 (hCoV-19/Australia/VIC01/2020); test: SARS-CoV-2 microplaque inhibition assay in Vero-E6 cells; type: cell-based; conditions: Severe acute respiratory syndrome coronavirus 2, Vero C1008; plaque inhibition, Vero-E6 cells; read-out: IC50 SARS-CoV-2
[12] = SI, IC50 (μM)/MIC99 (μg/mL), HEK293 cytotoxicity
[13] = SI, IC50 (μM)/MIC80 (μM), HEK293 cytotoxicity

Row | SMILES | inhibition at 20 µM (Influenza (H1N1)) | MIC99 [1] | MIC80 [2] | inhibition at 20 µM [3] | MIC99 [4] | IC50 (T. equiperdum) | MIC99 [5] | % Normalised Fluorescence with polyAU RNA [6] | % Normalised Fluorescence with gDNA [7] | MIC99 (Candida auris (H.17.157)) | IC50 (T. evansi AntTat 3/3) | MIC80 [8] | inhibition at 20 µM [9] | S. aureus Selectivity Indices, Group [10, 13] | MIC80 [10] | MIC99 (C. neoformans (F10025)) | E. faecalis Selectivity Indices, Group [2] | E. faecalis Selectivity Index (SI) [2] | IC50 (T. vaginalis) | T. vaginalis Selectivity Indices, Group (T. vaginalis) | other results
1 | Cn1cc(NC(=O)c2ccc(/C=C/c3ccc4nonc4c3)cc2)cc1C(=O)Nc1c[nH]c(C(=O)NCCC(=N)N)c1 [IIIa3, (E)-N-(5-((3-amino-3-iminopropyl)carbamoyl)-1H-pyrrol-3-yl)-4-(4-(2-(benzo[c][1,2,5]oxadiazol-5-yl)vinyl)benzamido)-1-methyl-1H-pyrrole-2-carboxamide] | > 50% | > 50 µg/mL | 5 to 25 µM (≈ 2.83 to 14.1 µg/mL) | 25 to 50% | 5 to 25 µg/mL (≈ 8.84 to 44.2 µM) | 10 to 100 nM | < 5 µg/mL | 3% | 27% | > 50 µg/mL | 10 to 100 nM | > 100 µM | > 50% | B (Group B: 3 < SI <= 5) | 5 to 25 µM (≈ 2.83 to 14.1 µg/mL) | < 5 µg/mL | – | – | – | – | C. glabrata Selectivity Indices, Group [5, 12]: B (Group B: 12 < SI <= 20)
2 | N=C(N)CCNC(=O)c1cc(NC(=O)c2cc(NC(=O)c3ccc(/C=C/c4cnc5ccccc5c4)cc3)c[nH]2)c[nH]1 [IIIa6, (E)-N-(3-amino-3-iminopropyl)-4-(4-(4-(2-(quinolin-3-yl)vinyl)benzamido)-1H-pyrrole-2-carboxamido)-1H-pyrrole-2-carboxamide] | > 50% | 25 to 50 µg/mL (≈ 44.6 to 89.2 µM) | < 5 µM | > 50% | 5 to 25 µg/mL (≈ 8.92 to 44.6 µM) | < 10 nM | < 5 µg/mL | 29% | 18% | 5 to 25 µg/mL (≈ 8.92 to 44.6 µM) | 10 to 100 nM | 25 to 100 µM (≈ 14 to 56.1 µg/mL) | > 50% | D (D: SI > 10) | < 5 µM | < 5 µg/mL | D (D: SI > 10) | 14 | – | – | C. glabrata Selectivity Indices, Group [5, 12]: D (Group D: SI > 50); C. glabrata Selectivity Index (SI) ([5]; SI, IC50 (μM)/MIC99 (μg/mL), HEK293 cytotoxicity, numeric value): 109; C. auris Selectivity Indices, Group (Candida auris (H.17.157)): D (Group D SI > 3); S. aureus Selectivity Index (SI) ([10]; SI, IC50 (μM)/MIC80 (μM), HEK293 cytotoxicity, numeric value): 14
3 | CC(C)=CCC/C(C)=C/CNC(=O)c1cc(NC(=O)c2cc(NC(=O)c3ccc(/C=C/c4cnc5ccccc5c4)cc3)cn2C)cn1C [IVa10, N—((E)-3,7-dimethylocta-2,6-dien-1-yl)-1-methyl-4-(1-methyl-4-(4-((E)-2-(quinolin-3-yl)vinyl)benzamido)-1H-pyrrole-2-carboxamido)-1H-pyrrole-2-carboxamide] | 10 to 25% | – | 25 to 100 µM (≈ 16.4 to 65.5 µg/mL) | > 50% | 25 to 50 µg/mL (≈ 38.2 to 76.4 µM) | – | 5 to 25 µg/mL (≈ 7.64 to 38.2 µM) | – | – | – | – | > 100 µM | > 50% | – | 5 to 25 µM (≈ 3.27 to 16.4 µg/mL) | > 50 µg/mL | – | – | 5000 to 50000 nM | – | –
4 | CC/N=C(\N)CCNC(=O)c1cc(NC(=O)c2cc(NC(=O)c3ccc(/C=C/c4ccc5nonc5c4)cc3)cn2C)cn1C [Ia12, N—((Z)-3-amino-3-(ethylimino)propyl)-4-(4-(4-((E)-2-(benzo[c][1,2,5]oxadiazol-5-yl)vinyl)benzamido)-1-methyl-1H-pyrrole-2-carboxamido)-1-methyl-1H-pyrrole-2-carboxamide] | > 50% | – | < 5 µM | 10 to 25% | > 50 µg/mL | 100 to 1000 nM | 5 to 25 µg/mL (≈ 8.23 to 41.1 µM) | 2% | 2% | – | 100 to 1000 nM | > 100 µM | > 50% | C (Group C: 5 < SI <= 10) | 5 to 25 µM (≈ 3.04 to 15.2 µg/mL) | 5 to 25 µg/mL (≈ 8.23 to 41.1 µM) | D (D: SI > 10) | 23 | 1000 to 5000 nM | B (Group B: 8 < SI <= 16) | IC50 [11]: 8000 to 32000 nM
5 | CC(C)/N=C(\N)CCNC(=O)c1cc(NC(=O)c2cc(NC(=O)c3ccc(/C=C/c4ccc5nonc5c4)cc3)cn2C)cn1C [Ia13, N—((Z)-3-amino-3-(isopropylimino)propyl)-4-(4-(4-((E)-2-(benzo[c][1,2,5]oxadiazol-5-yl)vinyl)benzamido)-1-methyl-1H-pyrrole-2-carboxamido)-1-methyl-1H-pyrrole-2-carboxamide] | > 50% | – | < 5 µM | 25 to 50% | > 50 µg/mL | – | 25 to 50 µg/mL (≈ 40.2 to 80.4 µM) | 3% | 2% | – | – | > 100 µM | > 50% | C (Group C: 5 < SI <= 10) | 5 to 25 µM (≈ 3.11 to 15.5 µg/mL) | 5 to 25 µg/mL (≈ 8.04 to 40.2 µM) | D (D: SI > 10) | 12 | 1000 to 5000 nM | C (Group C: 16 < SI <= 32) | IC50 [11]: 8000 to 32000 nM; T. vaginalis Selectivity Index (SI) (T. vaginalis): 17
6 | CC(C)NC(=N)CCNC(=O)c1cc(NC(=O)c2cc(NC(=O)c3ccc(/C=C/c4cnc5ccccc5c4)cc3)cn2C)cn1C [Ia21, (E)-N-(3-imino-3-(isopropylamino)propyl)-1-methyl-4-(1-methyl-4-(4-(2-(quinolin-3-yl)vinyl)benzamido)-1H-pyrrole-2-carboxamido)-1H-pyrrole-2-carboxamide] | 25 to 50% | 5 to 25 µg/mL (≈ 7.93 to 39.6 µM) | < 5 µM | > 50% | 5 to 25 µg/mL (≈ 7.93 to 39.6 µM) | – | < 5 µg/mL | 2% | 3% | 25 to 50 µg/mL (≈ 39.6 to 79.3 µM) | – | > 100 µM | 25 to 50% | – | < 5 µM | > 50 µg/mL | – | – | < 1000 nM | D (Group D: SI > 32) | C. auris Selectivity Indices, Group (Candida auris (H.17.157)): B (Group B: 0.4 < SI <= 1); T. vaginalis Selectivity Index (SI) (T. vaginalis): 41
